From US20090286839A1, “PHYTONUTRIENT COMPOSITIONS FROM MUSHROOMS OR FILAMENTOUS FUNGI AND METHODS OF USE” (priority 2006, published 2009)

Tested on: cortical neurons
Assay: 2% Low Serum Assay, neuronal viability by MTT method
Format: cell-based, chicken
Conditions: for viability, mean optical density: addition at 1DIV, n=8; for viability, mean optical density / maximum neuronal viability (% of untreated control) / viability, mean in % (control is 100%): 8 days; for maximum neuronal viability (% of untreated control) / viability, mean in % (control is 100%): Lohman or Hisex Brown, chicken
Procedure: Lohman or Hisex Brown chicken one-day-old fertilized eggs were obtained and stored in a lab under appropriate conditions of 12° C. and 80% humidity. At embryonic day 0 eggs were transferred into a breeding incubatore and stored under permanent turning until embryonic day 9 at 37.8° C. and 55% humidity. For isolation of neurons 4 to 6 chicken embryos were used per experiment. Neurons were plated out and nerve cells maintained in a nutrition medium at 37° C., 97% humidity, and 5% CO2.
Test Item (T.I.) and Reference Item (R.I.) were administered at the start of the experiments for 8 days. Neurons were maintained in the same medium without change or addition of media until the end of the experiments. During the whole culture period of 8 days cells stay in an incubator at 37° C., 97% humidity, and 5% CO2.
From T.I.1, L-Ergothioneine a 128 mM solution was prepared in medium and directly added to the cells at the start of the experiments for a total of 8 days. […] The pellet was discarded and only from the supernatant 1.25 μl up to 160 μl/ml medium was administered. R.I.2. the neurotrophic standard NTS is a ready to use injection solution and was applied in concentrations from 1.25 μl up ro 160 μl/ml medium. The stock-solution for R.I.3, Trolox, was made in a concentration of 2 mM in PBS and the appropriate concentrations added to the cells at day 1.
To the isolated nerve cell T.I.1 was added in a dose range of 0.5, 1, 2, 4, 8, 16, 32, 64 mM. The supernatant of R.I.1 and the ready to use injection solution of R.I.2 were applied in the concentration 1.25, 2.5, 5, 10, 20, 40, 80, 160 μl/ml medium. R.I.3 was tested in the concentrations of 1, 2, 4, 8, 16, 31.25, 62.5, 125 μM. Experiments were performed at two different days, whereby on each day two identical microplates were prepared with two to four wells per T.I. or R.I. (n=8). In this 2% cell stress assay substances were administered at start of the experiment (day 1 in vitro) for the whole experimental period that means for eight days in vitro.
Neuronal viability of cultures was determined with the MTT-assay using a plate-reader (570 nm) as described in SOP MET009. The MTT-assay is a sensitive assay measuring the mitochondrial dehydrogenase activity in viable cells only. It is performed according to the method described by Mosmann, J. Immunol. Meth., 1983, 55-63. This assay is based on the reduction of yellow MTT (3-(4,5-dimethylthiazol-2-yl)-2,5,diphenyl tetrazolium bromide), to dark blue formazan crystals by mitochondrial dehydrogenases (succinate dehydrogenase). Since this reaction is catalyzed in living cells only the assay can be used for the quantification of cell viability.
For the determination of cell viability MTT solution was added to each well in a final concentration of 0.5 mg/ml. After 2 hours the MTT containing medium was aspired. Cells were lysed with 3% SDS, formazan crystals dissolved in isopropanol/HCI. To estimate optical density a plate reader (Anthos HT II) was used at wavelength 570 nm. Neuronal viability is expressed as optical densities (ODs).

[1] = Gallus gallus, Cortical neurone, 192 h, read-out: viability, mean in % (control is 100%)

For COc1c(O)cc2oc3cc(O)c(CC=C(C)C)c(O)c3c(=O)c2c1CC=C(C)C [Mangostin], the “viability, mean optical density” value (1.25 μl/ml) was 0.051 OD, the “viability, mean optical density” value (2.5 μl/ml) was 0.052 OD and the “viability, mean optical density” value (5 μl/ml) was 0.053 OD. For the same molecule, the “viability, mean optical density” value (10 μl/ml) was 0.076 OD, the “viability, mean optical density” value (20 μl/ml) was 0.064 OD and the “viability, mean optical density” value (40 μl/ml) was 0.057 OD. The “viability, mean optical density” value (80 μl/ml) was 0.059 OD, the “viability, mean optical density” value (160 μl/ml) was 0.065 OD and the “maximum neuronal viability (% of untreated control)” value was 155%. For the same molecule, the “viability, mean in % (control is 100%)” value (1.25 μl/ml) was 93.86%, the “viability, mean in % (control is 100%)” value (2.5 μl/ml) was 95.97% and the “viability, mean in % (control is 100%)” value (5 μl/ml) was 98.32%. The “viability, mean in % (control is 100%)” value (10 μl/ml) was 142.18%, the “viability, mean in % (control is 100%)” value (20 μl/ml) was 155.61% and the “viability, mean in % (control is 100%)” value (80 μl/ml) was 109.66%. The “viability, mean in % (control is 100%)” value (160 μl/ml) was 120.33%.
Cc1c(C)c2c(c(C)c1O)CCC(C)(C(=O)O)O2 (stereo not drawn) [Trolox, 6-Hydroxy-2,5,7,8-tetramethylchroman2-carboxylic acid] was tested, and the “viability, mean optical density” value (1 μM) was 0.052 OD, the “viability, mean optical density” value (2 μM) was 0.056 OD and the “viability, mean optical density” value (4 μM) was 0.058 OD. For the same molecule, the “viability, mean optical density” value (8 μM) was 0.076 OD, the “viability, mean optical density” value (16 μM) was 0.180 OD and the “viability, mean optical density” value (31.25 μM) was 0.297 OD. For the same molecule, the “viability, mean optical density” value (62.5 μM) was 0.338 OD, the “viability, mean optical density” value (125 μM) was 0.262 OD and the viability at 1 µM [1] was 97.8%. For the same molecule, the viability at 2 µM [1] was 102%, the viability at 4 µM [1] was 107% and the viability at 8 µM [1] was 140%. The viability at 16 µM [1] was 331%, the viability at 31.25 µM [1] was 546% and the viability at 62.5 µM [1] was 620%. For the same molecule, the viability at 125 µM [1] was 482% and the “maximum neuronal viability (% of untreated control)” value was 620%.
